pIC50: −log10 of the molar value.
How the values were obtained:
Bcl-xl in HL-60 cells = assay: flow cytometry of Bcl-xl bright cells (FIG. 2A); assay type: cell-based, human; details: HL-60, 40 nM, 200 nM and 1 μM, 24 h
Description: Human promyelocytic leukemia HL60 Cells (500,000/well) were plated in 24-well tissue culture plates (Corning Life Sciences) in RPMI 10% FCS (Gibco) and were treated with the compounds described in Example 60 and 83 at 40 nM, 200 nM and 1 μM concentrations in 500 μl media. After 24 h incubation time cells with the corresponding supernatants were harvested and centrifuged down (2000 rpm, 5 min).
Pellets were resuspended and fixed in 3.5% PBS buffered formaldehyde (Molar Chemicals) for 10 minutes. Cells were washed with FACS-buffer (2% FCS, (Gibco) in PBS), centrifuged down (2000 rpm, 5 min). Cells were permeabilized in Permeability buffer (1% FCS, 0.1% saponin (Sigma-Aldrich) in PBS pH 7.4) for 5 minutes. Cells were washed with FACS buffer (2% FCS, (Gibco) in PBS), centrifuged (2000 rpm, 5 min). The following primary antibodies were used: Bcl-xl-Alexa 488, (Cell Signaling, cat. numb. 2767S), dilution 1:75, 24 h; pAkt-Alexa Fluor 488, (Ser473), (Cell Signaling, cat. numb, 4071), dilution 1:50, 24 or 72h; After incubation for 1h at 4° C. samples were washed two times with FACS buffer. […] In order to calculate the signal to noise ratio mean fluorescent intensity (MFI) was calculated by the following equation: =POWER(10; (Medianstained−Median unstained, untreated)/Chd), where Chd means 256, the number of channels per decade (Fajka-Boja et al. 2002; Sharrow 2001) in Microsoft Excel. […]

HL-60 cells = assay: Annexin V / propidium iodide apoptosis assay (FIG. 4); assay type: cell-based, human; details: HL-60, 40 nM, 200 nM and 1 μM, 24 h
Description: Cells (200,000/well) were plated in 24-well tissue culture plates (Corning Life Sciences) and treated with the compounds described in Example 60 and 83 at 40 nM, 200 nM and 1 μM concentrations in 500 μl media. After 24 h cells were harvested with the corresponding supernatant and centrifuged down (2000 rpm, 5 min). Pellets were resuspended in Annexin V binding buffer (0.01 M HEPES, 0.14 M NaCl and 2.5 mM CaCl2). Annexin V-Alexa Fluor® 488 (Life Technologies, 2.5:100) was added to the cells, which were then kept for 15 min in the dark at room temperature. Before the acquisition propidium iodide (10 μg/ml, Sigma-Aldrich) was added in Annexin V binding buffer to dilute Annexin V-Alexa Fluor® 488 5×. Cells (20.000 events) were analyzed on a FACSCalibur flow cytometer using CellQuest software (Becton Dickinson). The percentage of the FL1 (530/30 nm filter, Annexin V-Alexa Fluor® 488) positive and FL3 (670 nm filter, propidium iodide) negative early apoptotic cells and FL1 positive and FL3 positive late apoptotic cells were determined. The total apoptotic population included both early and late apoptotic cells. Column charts were created by GraphPad Prism® 5. Results are depicted in FIG. 4. […] We could detect AnnexinV^+/PI^− early and AnnexinV^+/PI^+ late apoptotic cell populations after 24 h of treatment.

[1] = test system: A549 (human lung adenocarcinoma); assay: viability assay (Table 2); assay type: cell-based
Description: (§1) For viability assays cells were seeded in 96 well plates (MCF7 and 4T1: 6000, HL60: 120.000 cells/well) and incubated overnight. Compounds were dissolved in dimethyl sulfoxide (DMSO). Cells were treated with an increasing concentration of compounds having the general formula (I.) (156 nM-100 μM). Cell viability was determined after 72h incubation. Resazurin reagent (Sigma-Aldrich) was dissolved in PBS (pH 7.4) at 0.15 mg/ml concentration, sterile filtered (0.22 μm, Merck Millipore) and aliquoted at −20° C. Resazurin reagent (Sigma-Aldrich) was added at a final concentration of 25 μg/ml. After 2 hours incubation at 37° C. 5% CO2 fluorescence (530 nm excitation/580 nm emission) was recorded on a multimode microplate reader (Cytofluor4000, PerSeptive Biosytems). Viability was calculated with relation to untreated control cells and blank wells containing media without cells. IC50 values (50% inhibiting concentration) were calculated by GraphPad Prism® 5 (La Jolla, Calif., USA).
(§2) GBM2 (human glioblastoma), HeLa (human cervical carcinoma), MIA PaCa-2 (human pancreas carcinoma) and U87MG (human glioblastoma) cells were maintained in Dulbecco's Modified Eagle Medium (DMEM) 10% fetal calf serum (FCS, Gibco). A375 (human melanoma), A549 (human lung adenocarcinoma) and HEP3B (human hepatoma) cells were maintained in Dulbecco's Modified Eagle Medium/Nutrient Mixture F-12 (DMEM/F12) 10% FCS.
(§3) Media were supplemented with 2 mM GlutaMAX, and 100 U/mL penicillin, 100 μg/mL streptomycin (Life Technologies, Carlsbad, Calif., USA). Cell cultures were maintained at 37° C. in a humidified incubator in an atmosphere of 5% CO2 (Sanyo, Japan).
(§4) Viability assays were performed as described in Example 102.

[2] = test system: GBM2 (human glioblastoma); assay: viability assay (Table 2); assay type: cell-based
Description: as §1, §2, §3, §4

[3] = test system: MIA PaCa-2 (human pancreas carcinoma); assay: viability assay (Table 2); assay type: cell-based
Description: as §1, §2, §3, §4

MOLT4 (human leukemia) = assay: viability assay (Table 2); assay type: cell-based; details: MOLT-4
Description: as §1
(§5) HT168 (human melanoma), HT199 (human melanoma), HT29 (human colorectal adenocarcinoma), MOLT4 (human leukemia) and U937 (human lymphoma) cells were maintained in Roswell Park Memorial Institute 1640 medium (RPMI-1640) 10% FCS. SKOV-3 cells were maintained in Dulbecco's Modified Eagle Medium/McCoy's medium (DMEM/McCoy) 10% FCS.
as §3, §4

[4] = test system: SKOV-3 cells (ovarian adenocarcinoma); assay: viability assay (Table 2); assay type: cell-based; details: Homo sapiens, SK-OV-3
Description: as §1, §5, §3, §4

U937 (human lymphoma) = assay: viability assay (Table 2); assay type: cell-based; details: U-937
Description: as §1, §5, §3, §4

For `CC(C)(C)Nc1c(C(C)(C)C)[nH]c2c(C(=O)Nc3ccc(F)cc3)cnn12` [Example 60, 2-(Tert-butyl)-N-(4-fluorophenyl)-3-((tert-butyl-2-yl)amino)-1H-imidazo[1,2-b]pyrazole-7-carboxamide], the “percentage of the Bcl-xl bright cells” value (Bcl-xl in HL-60 cells) was “increase”, the “AnnexinV+/PI- early and AnnexinV+/PI+ late apoptotic cell populations” value (HL-60 cells) was “accompanied by apoptosis” and the pIC50 [1] was 6.12. The pIC50 [2] was 6.60 and the pIC50 [3] was 6.52.
With `CC(C)(C)Nc1c(C(C)(C)C)[nH]c2c(C(=O)Nc3ccc(N)cc3)cnn12` [Example 83, N-(4-Aminophenyl)-2-(tert-butyl)-3-(tert-butylamino)-1H-imidazo[1,2-b]pyrazole-7-carboxamide] the “percentage of the Bcl-xl bright cells” value (Bcl-xl in HL-60 cells) was “increase”, the “AnnexinV+/PI- early and AnnexinV+/PI+ late apoptotic cell populations” value (HL-60 cells) was “accompanied by apoptosis” and the pIC50 [1] was 6.52. It also gave a pIC50 [2] of 7.00, a pIC50 [3] of 6.52 and a pIC50 (MOLT4 (human leukemia)) of 6.82. The pIC50 [4] was 6.82 and the pIC50 (U937 (human lymphoma)) was 6.60.

From patent US20220064167A1, “IMIDAZO-PYRAZOLE CARBOXAMIDE DERIVATIVES AS ANTICANCER AGENTS AND THE SYNTHESIS THEREOF” (AVIDIN KFT., priority 2018, published 2022)
